Data reported in paper PMC1977804, “Somatostatin binding in normal and malignant human gastrointestinal mucosa” (British Journal of Cancer, 1992).
Like-named read-outs stand apart in the source and are kept apart here. Bridges are numbered along the chain shown (N, C = ends). Where no end group is shown, it is not given here. The star is where a group is joined. 125I = [125I]*

How the values were obtained:
[1] = system: somatostatin binding sites, human gastric adenocarcinoma membranes; assay: competitive displacement of 125I-tyr-11-somatostatin-14, human gastric adenocarcinoma plasma membranes
Description: (§1) Br. J. Cancer (1992), 66, 391 395 ? Macmillan Press Ltd., 1992~~~~~~~~~~~~~~~~~~~~~~~~~~~~~~~~~~~~~~~~~~~~~~~~~~~~~~~~~~~~~~ Somatostatin binding in normal and malignant human gastrointestinal mucosa G.V. Miller, S.M. Farmery, L.F. Woodhouse & J.N. Primrose University Department of Surgery, St. James's University Hospital, Beckett Street, Leeds LS9 7TF, UK. Summary Somatostatin is a regulatory peptide implicated in the control of cellular proliferation in epithelial tissues and this regulation may occur directly via membrane bound receptor activation. The aim of this study was to investigate somatostatin binding in human gastrointestinal cancer and normal mucosa. Plasma membranes were prepared from specimens of tumour and normal mucosa from 51 patients undergoing surgical resection for malignancy (28 gastric, 23 colorectal). Using a competitive displacement assay, specific '251-tyrosine -1 -somatostatin-14 binding to plasma membranes was assessed and characterised in terms of receptor affinity (Kd) and maximum binding capacity (Bmax) as determined by Scatchard analysis. […] Similar affinity and binding capacity was demonstrable in normal mucosal samples. […] The functional significance of these low affinity binding sites requires elucidation to determine whether long-acting somatostatin analogues may have therapeutic benefit in gastrointestinal malignancy. Hormonal manipulation, by surgical or medical methods, has been used extensively in therapy for carcinoma of the breast, prostate, thyroid and in certain gut endocrine tumours (Horowitz et al., 1975; Higgins et al., 1941; Crile, 1957; Osei et al., 1985). There is, however, no currently defined role for endocrine therapy in non-endocrine gastrointestinal cancer. […] Any benefit from systemic therapy is usually abrogated by systemic toxicity (Rake et al., 1979; Engstrom et al., 1985; Bleiberg, 1990). For this reason a non-toxic, effective, treat- ment modality would be of value to improve the outlook for those patients with advanced disease. There is increasing evidence that tumours arising from the gastrointestinal tract are, at least in part, hormone depen- dent. Numerous hormones have now been implicated in the pathogenesis and development of gastrointestinal malig- nancy, including gastrin, epidermal growth factor, entero- pancreatic hormones and oestrogenic steroids (Sirinek et al., 1985; Watson et al., 1988; Li et al., 1980; Howatson & Carter, 1985; McMichael et al., 1980). […] Somatostatin and its analogues are good candidates for use as endocrine agents in the treatment of gastrointestinal cancer. The native peptide is widely distributed in the body and, amongst its many inhibitory actions, has a putative role as an anti-proliferative agent in both normal (Lehy et al., 1979) and malignant (Singh et al., 1986) tissue. The mechanisms involved in this anti-proliferative action have not, as yet, been confirmed. Both the native peptide and its analogues act at the somatotrophs of the anterior pituitary suppressing growth hormone production and release (Adrian et al., 1981). This may influence the proliferation of target tissues directly or may result in a substantial reduction in local growth factor release (Kirkegaard et al., 1984). Further, the production of other trophic hormones such as gastrin Correspondence: J.N. Primrose, University Department of Surgery, Clinical Sciences Building, St James's University Hospital, Beckett St, Leeds LS9 7TF, UK. Received 18 November 1991; and in revised form 9 March 1992. and insulin, either from normal cells or from hormonally active tumour cells, could be suppressed by somatostatin (Morris et al., 1988). The most interesting mechanism, how- ever, involves the interaction of the peptide with specific membrane bound receptors upon proliferating cells. […]

[2] = system: somatostatin receptors, rat cerebral cortex membranes; assay: competitive displacement of 125I-tyr-11-somatostatin-14, rat cerebral cortex plasma membranes (positive control); assay type: binding, rat (Wistar)
Description: as §1, with “cancer.” for “cancer. The native peptide is widely distributed in the body and, amongst its many inhibitory actions, has a putative role as an anti-proliferative agent in both normal (Lehy et al., 1979) and malignant (Singh et al., 1986) tissue. The mechanisms involved in this anti-proliferative action have not, as yet, been confirmed. Both the native peptide and its analogues act at the somatotrophs of the anterior pituitary suppressing growth hormone production and release (Adrian et al., 1981). This may influence the proliferation of target tissues directly or may result in a substantial reduction in local growth factor release (Kirkegaard et al., 1984). Further, the production of other trophic hormones such as gastrin Correspondence: J.N. Primrose, University Department of Surgery, Clinical Sciences Building, St James's University Hospital, Beckett St, Leeds LS9 7TF, UK. Received 18 November 1991; and in revised form 9 March 1992. and insulin, either from normal cells or from hormonally active tumour cells, could be suppressed by somatostatin (Morris et al., 1988). The most interesting mechanism, how- ever, involves the interaction of the peptide with specific membrane bound receptors upon proliferating cells.”

[3] = native peptide; no reference printed for this sentence; cited from earlier work
Description: Br. J. Cancer (1992), 66, 391 395 ? Macmillan Press Ltd., 1992~~~~~~~~~~~~~~~~~~~~~~~~~~~~~~~~~~~~~~~~~~~~~~~~~~~~~~~~~~~~~~ Somatostatin binding in normal and malignant human gastrointestinal mucosa G.V. Miller, S.M. Farmery, L.F. Woodhouse & J.N. Primrose University Department of Surgery, St. James's University Hospital, Beckett Street, Leeds LS9 7TF, UK. Summary Somatostatin is a regulatory peptide implicated in the control of cellular proliferation in epithelial tissues and this regulation may occur directly via membrane bound receptor activation. The aim of this study was to investigate s ...

[4] = system: somatostatin binding sites, normal colonic mucosa plasma membranes; assay: competitive displacement of 125I-tyr-11-somatostatin-14, normal colonic mucosa plasma membranes; design: species or system human; settings: 15 of 23 preparations; Scatchard/LIGAND; pH 7.4, 1 h, 35 °C; median (quartiles)
Description: (§2) Br. J. Cancer (1992), 66, 391 395 ? Macmillan Press Ltd., 1992~~~~~~~~~~~~~~~~~~~~~~~~~~~~~~~~~~~~~~~~~~~~~~~~~~~~~~~~~~~~~~ Somatostatin binding in normal and malignant human gastrointestinal mucosa G.V. Miller, S.M. Farmery, L.F. Woodhouse & J.N. Primrose University Department of Surgery, St. James's University Hospital, Beckett Street, Leeds LS9 7TF, UK. Summary Somatostatin is a regulatory peptide implicated in the control of cellular proliferation in epithelial tissues and this regulation may occur directly via membrane bound receptor activation. The aim of this study was to investigate somatostatin binding in human gastrointestinal cancer and normal mucosa. Plasma membranes were prepared from specimens of tumour and normal mucosa from 51 patients undergoing surgical resection for malignancy (28 gastric, 23 colorectal). Using a competitive displacement assay, specific '251-tyrosine -1 -somatostatin-14 binding to plasma membranes was assessed and characterised in terms of receptor affinity (Kd) and maximum binding capacity (Bmax) as determined by Scatchard analysis. […] Similar affinity and binding capacity was demonstrable in normal mucosal samples. […] The functional significance of these low affinity binding sites requires elucidation to determine whether long-acting somatostatin analogues may have therapeutic benefit in gastrointestinal malignancy. […]

[5] = system: somatostatin binding sites, gastric body mucosal plasma membranes; assay: competitive displacement of 125I-tyr-11-somatostatin-14, normal gastric body mucosa plasma membranes; design: species or system human; settings: 21 of 28 preparations, including mucosa of the patient with high affinity tumour, Scatchard/LIGAND, pH 7.4, 1 h, 35 °C, median (quartiles)
Description: as §2

[6] = system: somatostatin binding sites, colorectal adenocarcinoma plasma membranes; assay: competitive displacement of 125I-tyr-11-somatostatin-14, human colorectal adenocarcinoma plasma membranes; settings: for Bmax: Table I, colorectal
Description: as §1

Question: Which “Bmax, low affinity binding” value ([1]; 22 of 28 tumours, Scatchard/LIGAND, pH 7.4, 1 h, 35 °C, median (quartiles)) does the source give for “125I-tyrosine-11-somatostatin-14 (AGCKNFFWKTY(125I)TSC; disulfide 3-14; ends not checked; UniProt P61278 103-116, looked up, variant F11Y) [125I-tyr-11-somatostatin-14, radioligand made by Chloramine T iodination of tyr-11-somatostatin-14]” here?
Answer: The value was 1.2 (0.7-5.7) pmol mg-1 protein.

Question: What about the Kd ([1]; 22 of 28 tumours, Scatchard/LIGAND, pH 7.4, 1 h, 35 °C, median (quartiles), read-out: affinity (Kd), low affinity binding) of the same substance?
Answer: The Kd was 170 nM.

Question: What about the “increase in specific bound counts at 35 °C versus 21 °C” value ([2]; 35 °C versus room temperature (21 °C)) of the same substance?
Answer: Its value is 20-30%.

Question: For somatostatin-14, which Bmax ([1]; Figure 2 inset, single representative experiment, Scatchard plot) is on record?
Answer: The Bmax was 6.1 pmol mg-1 protein.

Question: What about the Kd ([1]; Figure 2 inset, single representative experiment, Scatchard plot, read-out: Kd) of the same substance?
Answer: The Kd was 165 nM.

Question: What about the Bmax ([1]; Table I, gastric, grade Mod, pH 7.4, 1 h, 35 °C, median (quartiles)) of the same substance?
Answer: The Bmax was 1.04 (0.23-6.23) pmol mg-1 protein.

Question: And the Bmax ([1]; Table I, gastric, grade Poor, pH 7.4, 1 h, 35 °C, median (quartiles))?
Answer: The Bmax was 1.17 (0.67-5.71) pmol mg-1 protein.

Question: What about the Bmax ([1]; Table I, gastric, grade Well, pH 7.4, 1 h, 35 °C, one sample) of the same substance?
Answer: The Bmax was 5.11 pmol mg-1 protein.

Question: And the Bmax ([1]; Table I, gastric, site: Antrum, pH 7.4, 1 h, 35 °C, median (quartiles))?
Answer: Its Bmax is 1.04 (0.67 -3.36) pmol mg-1 protein.

Question: What about the Bmax ([1]; Table I, gastric, site: Body, pH 7.4, 1 h, 35 °C, median (quartiles)) of the same substance?
Answer: Its Bmax is 0.83 (0.25 -7.43) pmol mg-1 protein.

Question: What about the Bmax ([1]; Table I, gastric, site: Cardia, pH 7.4, 1 h, 35 °C, median (quartiles)) of the same substance?
Answer: Its Bmax is 1.73 (1.23-5.11) pmol mg-1 protein.

Question: What about the Bmax ([1]; Table I, gastric, stage I (TNM), pH 7.4, 1 h, 35 °C, one sample) of the same substance?
Answer: Its Bmax is 0.28 pmol mg-1 protein.

Question: And the Bmax ([1]; Table I, gastric, stage II (TNM), pH 7.4, 1 h, 35 °C, median (quartiles))?
Answer: The Bmax was 0.79 (0.23-1.04) pmol mg-1 protein.

Question: And the Bmax ([1]; Table I, gastric, stage III (TNM), pH 7.4, 1 h, 35 °C, median (quartiles))?
Answer: Its Bmax is 1.24 (0.77-6.11) pmol mg-1 protein.

Question: And the Bmax ([1]; Table I, gastric, stage IV (TNM), pH 7.4, 1 h, 35 °C, one sample)?
Answer: The Bmax was 6.3 pmol mg-1 protein.

Question: What about the “Bmax, low affinity high capacity binding” value ([1]; abstract, 22 gastric cancers, Scatchard analysis) of the same substance?
Answer: The value was 1.2 pmol mg-1 protein.

Question: What about the “Bmax, high affinity receptors” value ([1]; one gastric carcinoma (one patient), Scatchard/LIGAND) of the same substance?
Answer: Its value is 0.23 pmol mg-1 protein.

Question: And the Kd ([1]; one gastric carcinoma (one patient), Scatchard/LIGAND, read-out: Kd, high affinity receptors)?
Answer: The Kd was 0.9 nM.

Question: And the Bmax ([2]; Figure 1 inset, single representative experiment, Scatchard plot by LIGAND)?
Answer: The Bmax was 0.21 pmol mg-1 protein.

Question: What about the Kd ([2]; Figure 1 inset, single representative experiment, Scatchard plot by LIGAND, read-out: Kd) of the same substance?
Answer: The Kd was 0.92 nM.

Question: And the Kd ([2]; Scatchard/LIGAND, HEPES-KOH pH 7.4, 1 h, 35 °C, median (range), read-out: receptor affinity (Kd))?
Answer: Its Kd is 0.85 nM.

Question: And the “half life in the circulation” value [3]?
Answer: Its value is “less than 3 min”.

Question: And the Bmax [4]?
Answer: The Bmax was 0.7 (0.3-3.5) pmol mg-1 protein.

Question: And the Kd [4]?
Answer: The Kd was 130 nM.

Question: And the “Bmax, low affinity high capacity binding” value [5]?
Answer: Its value is 3.9 (1.2-6.6) pmol mg-1 protein.

Question: What about the Kd ([5]; read-out: Kd, low affinity high capacity binding) of the same substance?
Answer: Its Kd is 180 nM.

Question: And the “Bmax, low affinity high capacity binding” value ([6]; 17 of 23 preparations, Scatchard/LIGAND, pH 7.4, 1 h, 35 °C, median (quartiles))?
Answer: The value was 1.8 (1.2-2.9) pmol mg-1 protein.

Question: And the Bmax ([6]; grade Mod, pH 7.4, 1 h, 35 °C, median (quartiles))?
Answer: The Bmax was 1.72 (1.30-2.69) pmol mg-1 protein.

Question: What about the Bmax ([6]; grade Poor, pH 7.4, 1 h, 35 °C, median (quartiles)) of the same substance?
Answer: The Bmax was 1.81 (0.74-2.87) pmol mg-1 protein.

Question: And the Bmax ([6]; grade Well, pH 7.4, 1 h, 35 °C, median (quartiles))?
Answer: The Bmax was 1.75 (0.49-2.99) pmol mg-1 protein.

Question: What about the Bmax ([6]; site: (R) Colon, pH 7.4, 1 h, 35 °C, median (quartiles)) of the same substance?
Answer: The Bmax was 2.99 (2.12-3.94) pmol mg-1 protein.

Question: What about the Bmax ([6]; site: Rectum, pH 7.4, 1 h, 35 °C, median (quartiles)) of the same substance?
Answer: The Bmax was 1.67 (1.02-2.78) pmol mg-1 protein.

Question: And the Bmax ([6]; site: Sigmoid, pH 7.4, 1 h, 35 °C, median (quartiles))?
Answer: The Bmax was 0.49 (0.11 -1.75) pmol mg-1 protein.

Question: What about the Bmax ([6]; stage A (Dukes), pH 7.4, 1 h, 35 °C, one sample) of the same substance?
Answer: The Bmax was 3.40 pmol mg-1 protein.

Question: What about the Bmax ([6]; stage B (Dukes), pH 7.4, 1 h, 35 °C, median (quartiles)) of the same substance?
Answer: The Bmax was 1.72 (1.30-2.99) pmol mg-1 protein.

Question: And the Bmax ([6]; stage C (Dukes), pH 7.4, 1 h, 35 °C, median (quartiles))?
Answer: The Bmax was 1.48 (0.62-2.41) pmol mg-1 protein.

Question: And the “Bmax, low affinity high capacity binding” value ([6]; abstract, 17 colorectal cancers, Scatchard analysis)?
Answer: Its value is 1.8 pmol mg-1 protein.

Question: What about the Kd ([6]; abstract, 17 colorectal cancers, Scatchard analysis, read-out: Kd, low affinity binding) of the same substance?
Answer: Its Kd is 140 nM.
